Where a SMILES comes first, the peptide text is derived from it.
What was measured:
Format in all cases: functional
Acinetobacter baumannii = experiment: Antibacterial activity against Acinetobacter baumannii ATCC 19606 incubated for 18 hrs by visual inspection method
Bacillus subtilis = experiment: Antibacterial activity against Bacillus subtilis ATCC 23857 incubated for 18 hrs by visual inspection method
[1] = system: Staphylococcus epidermidis; experiment: Antibacterial activity against Staphylococcus epidermidis ATCC 12228 incubated for 18 hrs by visual inspection method
Staphylococcus aureus = experiment: Antibacterial activity against Staphylococcus aureus ATCC 25923 incubated for 18 hrs by visual inspection method
Klebsiella pneumoniae = experiment: Antibacterial activity against Klebsiella pneumoniae ATCC 700603 incubated for 18 hrs by visual inspection method
Escherichia coli = experiment: Antibacterial activity against Escherichia coli ATCC 25922 incubated for 18 hrs by visual inspection method

## CSCC[C@H](NC(=O)[C@H](Cc1c[nH]c2ccccc12)NC(=O)[C@H](CCSC)NC(=O)[C@H](Cc1c[nH]c2ccccc12)NC(=O)[C@@H](NC(=O)[C@H](Cc1c[nH]c2ccccc12)NC(=O)[C@H](Cc1c[nH]c2ccccc12)NC(=O)[C@H](CCSC)NC(=O)[C@H](CCCCN)NC(=O)[C@H](CS)NC(=O)CNC(=O)[C@H](Cc1ccccc1)NC(=O)[C@@H](N)CO)C(C)C)C(N)=O (H-SFGCKMWWVWMWM-NH2)
Acinetobacter baumannii
  MIC: > 60 µg/mL
Bacillus subtilis
  MIC: > 60 µg/mL
[1]
  MIC: > 60 µg/mL
Staphylococcus aureus
  MIC: > 60 µg/mL
Klebsiella pneumoniae
  MIC: > 60 µg/mL
Escherichia coli
  MIC: > 60 µg/mL

## CC[C@H](C)[C@H](NC(=O)[C@H](CC(C)C)NC(=O)[C@H](CS)NC(=O)[C@@H]1CCCN1C(=O)[C@H](CC(C)C)NC(=O)[C@@H](NC(=O)[C@H](CS)NC(=O)[C@H](Cc1ccccc1)NC(=O)[C@@H](N)Cc1c[nH]c2ccccc12)[C@@H](C)CC)C(=O)N[C@@H](Cc1ccccc1)C(=O)N[C@@H](CCCCN)C(=O)N[C@@H](Cc1c[nH]c2ccccc12)C(=O)N[C@@H](CCC(N)=O)C(N)=O (H-WFCILPCLIFKWQ-NH2)
Acinetobacter baumannii
  MIC: > 60 µg/mL
Bacillus subtilis
  MIC: > 60 µg/mL
[1]
  MIC: > 60 µg/mL
Staphylococcus aureus
  MIC: > 60 µg/mL
Klebsiella pneumoniae
  MIC: > 60 µg/mL
Escherichia coli
  MIC: > 60 µg/mL

## CC[C@H](C)[C@H](NC(=O)[C@@H](N)Cc1c[nH]c2ccccc12)C(=O)N[C@@H](Cc1c[nH]c2ccccc12)C(=O)N[C@H](C(=O)N[C@@H](Cc1ccccc1)C(=O)N[C@@H](CCCCN)C(=O)N[C@@H](Cc1c[nH]cn1)C(=O)N[C@@H](CC(C)C)C(=O)NCC(=O)N[C@@H](CS)C(=O)N[C@@H](CCC(N)=O)C(=O)N[C@@H](CCCCN)C(=O)N[C@@H](CCC(N)=O)C(N)=O)[C@@H](C)O (H-WIWTFKHLGCQKQ-NH2)
Acinetobacter baumannii
  MIC: > 60 µg/mL
Bacillus subtilis
  MIC: > 60 µg/mL
[1]
  MIC: > 60 µg/mL
Staphylococcus aureus
  MIC: > 60 µg/mL
Klebsiella pneumoniae
  MIC: > 60 µg/mL
Escherichia coli
  MIC: > 60 µg/mL

## CC[C@H](C)[C@H](NC(=O)CNC(=O)[C@@H](NC(=O)[C@H](Cc1ccccc1)NC(=O)[C@@H](NC(=O)[C@H](Cc1c[nH]cn1)NC(=O)[C@H](Cc1c[nH]c2ccccc12)NC(=O)[C@@H](NC(=O)[C@@H]1CCCN1)[C@@H](C)O)[C@@H](C)CC)[C@@H](C)CC)C(=O)N[C@@H](Cc1c[nH]c2ccccc12)C(=O)N[C@@H](CO)C(=O)N[C@@H](CS)C(=O)N[C@@H](Cc1c[nH]c2ccccc12)C(N)=O (H-PTWHIFIGIWSCW-NH2)
Acinetobacter baumannii
  MIC: > 60 µg/mL
Bacillus subtilis
  MIC: > 60 µg/mL
[1]
  MIC: > 60 µg/mL
Staphylococcus aureus
  MIC: > 60 µg/mL
Klebsiella pneumoniae
  MIC: > 60 µg/mL
Escherichia coli
  MIC: > 60 µg/mL

## CC(C)C[C@H](NC(=O)[C@H](CCCCN)NC(=O)[C@H](CS)NC(=O)[C@H](CS)NC(=O)[C@@H](NC(=O)CNC(=O)[C@@H](NC(=O)[C@H](Cc1ccccc1)NC(=O)[C@H](CCC(N)=O)NC(=O)[C@H](CS)NC(=O)[C@@H](N)Cc1c[nH]c2ccccc12)C(C)C)C(C)C)C(=O)N[C@@H](CS)C(=O)N[C@H](C(N)=O)C(C)C (H-WCQFVGVCCKLCV-NH2)
Acinetobacter baumannii
  MIC: > 60 µg/mL
Bacillus subtilis
  MIC: > 60 µg/mL
[1]
  MIC: > 60 µg/mL
Staphylococcus aureus
  MIC: > 60 µg/mL
Klebsiella pneumoniae
  MIC: > 60 µg/mL
Escherichia coli
  MIC: > 60 µg/mL

## CC[C@H](C)[C@H](NC(=O)[C@H](C)NC(=O)[C@H](Cc1c[nH]c2ccccc12)NC(=O)[C@H](CCCCN)NC(=O)[C@H](C)NC(=O)CNC(=O)[C@@H](NC(=O)[C@@H](N)CO)[C@@H](C)CC)C(=O)N[C@@H](Cc1c[nH]c2ccccc12)C(=O)N[C@@H](Cc1c[nH]c2ccccc12)C(=O)N[C@@H](Cc1c[nH]c2ccccc12)C(=O)N[C@@H](CCSC)C(=O)N[C@H](C(N)=O)C(C)C (H-SIGAKWAIWWWMV-NH2)
Acinetobacter baumannii
  MIC: > 60 µg/mL
Bacillus subtilis
  MIC: > 60 µg/mL
[1]
  MIC: > 60 µg/mL
Staphylococcus aureus
  MIC: > 60 µg/mL
Klebsiella pneumoniae
  MIC: > 60 µg/mL
Escherichia coli
  MIC: > 60 µg/mL

## GRAMICIDIN
Bacillus subtilis
  MIC: 3.75 µg/mL
[1]
  MIC: 3.75 µg/mL
Staphylococcus aureus
  MIC: 1.88 µg/mL
